# Results taken from PubChem BioAssay AID220 (DTP/NCI, 2004).
# Values joined by “and” are separate entries in the source; they are usually repeats but may differ in a detail not shown here. Equal entries are not always repeated. Results filed as inconclusive are left out.
# Tested on: CD8F1 mice, subcutaneous mammary adenocarcinoma, T/C%
# Experiment: NCI In Vivo Anticancer Drug Screen. Data for tumor model Mammary Adenocarcinoma CD8F1 (subcutaneous) in CD8F1
# Conditions: higher = larger tumour
# Method in brief: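 Ratio of treated to vehicle-control outcome, based on either survival or tumor size, in mice bearing transplantable tumors given the test compound.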
# [1] = endpoint: median tumor weight (est.), dose: 12.5 mg/kg/injection, schedule: Q07DX005 (ip), vehicle: saline with Tween-80
# [2] = endpoint: median tumor weight (est.), dose: 50.0 mg/kg/injection, schedule: Q07DX005 (ip), vehicle: saline with Tween-80
# [3] = endpoint: median tumor weight change, dose: 125.0 mg/kg/injection, schedule: Q01DX001 (ip), vehicle: saline
# [4] = endpoint: median tumor weight change, dose: 500.0 mg/kg/injection, schedule: Q01DX001 (ip), vehicle: saline
compound,measurement,setting,value
CN(C)P(=O)(Oc1ccccc1)N(C)C,T/C,"endpoint: median tumor weight change, dose: 62.5 mg/kg/injection, schedule: Q01DX001 (ip), vehicle: saline with Tween-80",86 % of control
same,T/C,"endpoint: median tumor weight change, dose: 125.0 mg/kg/injection, schedule: Q01DX001 (ip), vehicle: saline with Tween-80",63 % of control
same,T/C,"endpoint: median tumor weight change, dose: 500.0 mg/kg/injection, schedule: Q01DX001 (ip), vehicle: saline with Tween-80",94 % of control
Cc1c2cc(Cl)c3ccccc3c2c[n+]2ccccc12,T/C,[1],52 % of control
same,T/C,"endpoint: median tumor weight (est.), dose: 25.0 mg/kg/injection, schedule: Q07DX005 (ip), vehicle: saline with Tween-80",52 % of control and 57 % of control
same,T/C,[2],61 % of control and 65 % of control
COC(=O)C[C@](O)(CCC(C)(C)O)C(=O)O[C@@H]1C(OC)=C[C@]23CCCN2CCc2cc4c(cc2[C@H]13)OCO4,T/C,"endpoint: median tumor weight change, dose: 1.25 mg/kg/injection, schedule: Q01DX001 (ip), vehicle: saline",80 % of control and 96 % of control
same,T/C,"endpoint: median tumor weight change, dose: 2.5 mg/kg/injection, schedule: Q01DX001 (ip), vehicle: saline",89 % of control and 94 % of control
same,T/C,"endpoint: median tumor weight change, dose: 10.0 mg/kg/injection, schedule: Q01DX001 (ip), vehicle: saline",68 % of control
COc1ccc([I+]c2cccc(Cl)c2)cc1Cl,T/C,"endpoint: median tumor weight (est.), dose: 3.12 mg/kg/injection, schedule: Q07DX005 (ip), vehicle: saline with Tween-80",189 % of control
same,T/C,[1],34 % of control
same,T/C,[2],111 % of control
C(C#CCN1CCOCC1)#CCN1CCOCC1,T/C,"endpoint: median tumor weight (est.), dose: 25.0 mg/kg/injection, schedule: Q07DX005 (ip), vehicle: Klucel (hydroxypropylcellulose) (HPC)",181 % of control
same,T/C,"endpoint: median tumor weight (est.), dose: 50.0 mg/kg/injection, schedule: Q07DX005 (ip), vehicle: Klucel (hydroxypropylcellulose) (HPC)",43 % of control
same,T/C,"endpoint: median tumor weight (est.), dose: 100.0 mg/kg/injection, schedule: Q07DX005 (ip), vehicle: Klucel (hydroxypropylcellulose) (HPC)",48 % of control
same,T/C,"endpoint: median tumor weight (est.), dose: 200.0 mg/kg/injection, schedule: Q07DX005 (ip), vehicle: Klucel (hydroxypropylcellulose) (HPC)",41 % of control
same,T/C,"endpoint: median tumor weight (est.), dose: 400.0 mg/kg/injection, schedule: Q07DX005 (ip), vehicle: Klucel (hydroxypropylcellulose) (HPC)",68 % of control
same,T/C,"endpoint: median tumor weight (est.), dose: 800.0 mg/kg/injection, schedule: Q07DX005 (ip), vehicle: Klucel (hydroxypropylcellulose) (HPC)",62 % of control
CNNCc1ccc(C(=O)NC(C)C)cc1,T/C,"endpoint: median tumor weight (est.), dose: 16.0 mg/kg/injection, schedule: Q07DX005 (ip), vehicle: saline",207 % of control and 101 % of control
Cc1cc(Nc2ccc3c(c2)OCO3)c2cc3c(cc2n1)OCO3,T/C,"endpoint: median tumor weight change, dose: 125.0 mg/kg/injection, schedule: Q01DX001 (ip), vehicle: Klucel (hydroxypropylcellulose) (HPC)",54 % of control
CC1=CC2C(O)(CC(CO)=CC3C4C(C)(C)C4(OC(=O)c4ccccc4)C(OC(=O)c4ccccc4)C(C)C32O)C1=O (stereo not given),T/C,"endpoint: median tumor weight change, dose: 0.63 mg/kg/injection, schedule: Q01DX001 (ip), vehicle: saline with Tween-80",88 % of control
same,T/C,"endpoint: median tumor weight change, dose: 1.25 mg/kg/injection, schedule: Q01DX001 (ip), vehicle: saline with Tween-80",58 % of control
same,T/C,"endpoint: median tumor weight change, dose: 5.0 mg/kg/injection, schedule: Q01DX001 (ip), vehicle: saline with Tween-80",96 % of control
NC(CCC(=O)NC(CS)C(=O)NCC(=O)O)C(=O)O (stereo not given),T/C,[3],74 % of control
same,T/C,[4],82 % of control
CC(=O)NCCCCCCNC(C)=O,T/C,[3],58 % of control
same,T/C,[4],67 % of control
same,T/C,"endpoint: median tumor weight change, dose: 1000.0 mg/kg/injection, schedule: Q01DX001 (ip), vehicle: saline",52 % of control and 72 % of control
same,T/C,"endpoint: median tumor weight change, dose: 4000.0 mg/kg/injection, schedule: Q01DX001 (ip), vehicle: saline",39 % of control
C/C=C\C1OC1(C)c1cc(=O)c2c(C)cc3c(c2o1)C(=O)c1c(O)c(C2CC(C)(N(C)C)C(OC(C)=O)C(C)O2)cc(C2CC(N(C)C)C(O)C(C)O2)c1C3=O (stereo not given),T/C,"endpoint: median tumor weight change, dose: 0.31 mg/kg/injection, schedule: Q01DX001 (ip), vehicle: saline + alcohol",69 % of control
same,T/C,"endpoint: median tumor weight change, dose: 0.62 mg/kg/injection, schedule: Q01DX001 (ip), vehicle: saline + alcohol",85 % of control
same,T/C,"endpoint: median tumor weight change, dose: 1.25 mg/kg/injection, schedule: Q01DX001 (ip), vehicle: saline + alcohol",70 % of control
same,T/C,"endpoint: median tumor weight change, dose: 2.5 mg/kg/injection, schedule: Q01DX001 (ip), vehicle: saline + alcohol",31 % of control
same,T/C,"endpoint: median tumor weight change, dose: 5.0 mg/kg/injection, schedule: Q01DX001 (ip), vehicle: saline + alcohol",34 % of control
same,T/C,"endpoint: median tumor weight change, dose: 10.0 mg/kg/injection, schedule: Q01DX001 (ip), vehicle: saline + alcohol",25 % of control
COC(C(=O)C(O)C(C)O)C1CC2C=C3C=C(OC4CC(OC5CC(O)C(OC)C(C)O5)C(OC(C)=O)C(C)O4)C(C)C(=O)C3=C(O)C2=C(O)C1OC1CC(OC2CC(OC3CC(C)(O)C(OC(=O)C(C)C)C(C)O3)C(O)C(C)O2)C(O)C(C)O1 (stereo not given),T/C,"endpoint: median tumor weight (est.), dose: 25.0 micrograms/kg/injection, schedule: Q07DX005 (ip), vehicle: saline",74 % of control
same,T/C,"endpoint: median tumor weight (est.), dose: 50.0 micrograms/kg/injection, schedule: Q07DX005 (ip), vehicle: saline",78 % of control
same,T/C,"endpoint: median tumor weight (est.), dose: 100.0 micrograms/kg/injection, schedule: Q07DX005 (ip), vehicle: saline",65 % of control
same,T/C,"endpoint: median tumor weight (est.), dose: 200.0 micrograms/kg/injection, schedule: Q07DX005 (ip), vehicle: saline",48 % of control
same,T/C,"endpoint: median tumor weight (est.), dose: 400.0 micrograms/kg/injection, schedule: Q07DX005 (ip), vehicle: saline",73 % of control
